According to patent US12049450B2, “Pyridyloxy-carboxylate derivative and preparation method therefor, herbicidal composition, and use” (Qingdao Kingagroot Chemical Compound Co., Ltd., priority 2018, dated 2024):

Assays:
Assay in all cases: Post-emergence test experiment (greenhouse pot, spray at 2-3 leaf stage)
Assay type in all cases: in vivo
Indica rice = settings: post-emergence comparison, 600 g/ha
Method in brief: (§1)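 Activity graded levels 0-5 by fresh-weight inhibition (level 5 above 85%, level 0 below 5%), assessed 3 weeks after treatment. Plants grown in greenhouse pots were sprayed post-emergence at 2-3 leaves using acetone/tween-80 solutions with methyl oleate synergist (1.5 L/ha).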

Leptochloa chinensis = settings: 600 g/ha
Method in brief: as §1

Cyperus iria = settings: post-emergence comparison, 600 g/ha
Method in brief: as §1

Galium spurium = settings: 1000 g/ha; post-emergence spray at 2-3 leaf stage; assessed after 3 weeks; fresh weight inhibition rate
Method in brief: as §1

Digitaria sanguinalis = system: Digitaria sanguinalis
Method in brief: as §1

Echinochloa crusgalli = system: Echinochloa crusgalli
Method in brief: as §1

Japonica rice = settings: post-emergence comparison, 600 g/ha
Method in brief: as §1

Echinochloa phyllopogon = settings: 600 g/ha
Method in brief: as §1

Monochoria vaginalis = settings: 1000 g/ha; post-emergence spray at 2-3 leaf stage; assessed after 3 weeks; fresh weight inhibition rate
Method in brief: as §1

Setaria viridis = settings: 600 g/ha
Method in brief: as §1

Abutilon theophrasti = settings: 1000 g/ha; post-emergence spray at 2-3 leaf stage; assessed after 3 weeks; fresh weight inhibition rate
Method in brief: as §1

[1] = 1000 g/ha, post-emergence spray at 2-3 leaf stage, assessed after 3 weeks, fresh weight inhibition rate
[2] = post-emergence comparison, 600 g/ha

`CC(Oc1nc(F)c(Cl)c(N)c1Cl)C(=O)OCc1c(F)c(F)c(F)c(F)c1F` (stereo not shown) [Compound 238] was tested, and the “Indica rice, activity level (comparison test)” value (Indica rice) was 0 (Level 0: the growth inhibition rate is less than 5%), the “Leptochloa chinensis, activity level (comparison test)” value (Leptochloa chinensis) was 5 (Level 5: the growth inhibition rate is greater than 85%) and the “Cyperus iria, activity level (comparison test)” value (Cyperus iria) was 5 (Level 5: the growth inhibition rate is greater than 85%). For the same compound, the “Activity level (growth inhibition rate) Galium spurium” value (Galium spurium) was 5 (Level 5: the growth inhibition rate is greater than 85%), the “Activity level (growth inhibition rate) Digitaria sanguinalis” value (Digitaria sanguinalis; [1]) was 5 (Level 5: the growth inhibition rate is greater than 85%) and the “Digitaria sanguinalis, activity level (comparison test)” value (Digitaria sanguinalis; [2]) was 5 (Level 5: the growth inhibition rate is greater than 85%). For the same compound, the “Activity level (growth inhibition rate) Echinochloa crusgalli” value (Echinochloa crusgalli; [1]) was 5 (Level 5: the growth inhibition rate is greater than 85%), the “Echinochloa crusgalli, activity level (comparison test)” value (Echinochloa crusgalli; [2]) was 5 (Level 5: the growth inhibition rate is greater than 85%) and the “Japonica rice, activity level (comparison test)” value (Japonica rice) was 0 (Level 0: the growth inhibition rate is less than 5%). The “Echinochloa phyllopogon, activity level (comparison test)” value (Echinochloa phyllopogon) was 4 (Level 4: the growth inhibition rate is equal to or greater than 60% and less than 85%), the “Activity level (growth inhibition rate) Monochoria Vaginalis” value (Monochoria vaginalis) was 5 (Level 5: the growth inhibition rate is greater than 85%) and the “Setaria viridis, activity level (comparison test)” value (Setaria viridis) was 5 (Level 5: the growth inhibition rate is greater than 85%). For the same compound, the “Activity level (growth inhibition rate) Abutilon theophrasti” value (Abutilon theophrasti) was 5 (Level 5: the growth inhibition rate is greater than 85%).
